Source: patent US20030017599A1, “Assay for the detection of selectable marker expression in plants” (priority 1999, published 2003)

Legend:
Type in all cases: in vivo, corn (Zea mays)
[1] = test system: Nontransgenic corn plants (H99); experiment: Kanamycin, paromomycin and the combination with and without surfactant; details: 20 μL, 5 plants, seven days
Experimental: Nontransgenic corn plants (H99) were tested at 24 days old using 5 plants for each treatment. Plants were treated with and without surfactant at two different concentrations of paromomycin, kanamycin, and the combination of paromomycin and kanamycin._On the day of application, an antibiotic solutions consisting of 750 mg/L or 1000 mg/L paromomycin and 0.06% (v/v) SILWET L-77 was prepared, as was a control solution consisting of 750 mg/L or 1000 mg/L of paromomycin in water. […] Antibiotic solution (20 μL) was applied to the whorl of each corn plant, from which any standing water has been removed beforehand.

[2] = test system: Nontransgenic 3-week-old corn seedlings; experiment: Titration of selective agents with cotton rolls tied to the whorl
Experimental: Nontransgenic 3-week-old corn seedlings were assayed in order to determine the quantity of selective agent necessary in order to obtain a response. […] Cotton rolls were saturated with solutions consisting of 0.03% SILWET L-77 and various concentrations of each of these three antibiotics individually and tied to the whorl of plants to be tested.
The concentrations of genenticin tested were 25 mg/mL, 50 mg/mL, 75 mg/mL, and 100 mg/mL.

[3] = test system: corn plants containing NPTII protein; experiment: Paromomycin as selective agent to identify corn plants containing NPTII protein (predicted); details: 10 μL of 1000 mg/L paromomycin and 0.06% (v/v) SILWET L-77; five days
From the text: Samples of the plants may be taken and analyzed by ELISA for the presence or absence of NPTII protein prior to the start of the field test. […] Negative controls (i.e., nontransgenic plants) may be divided into two equal groups. […] The treated plants may then be scored for the presence or absence of necrosis five days after application of the antibiotic/[…]-77 solution or control solution. […] The field assay scores may then be correlated with the […] results.

[4] = 750 mg/L (each antibiotic), with 0.06% SILWET L-77
[5] = 750 mg/L (each antibiotic), without SILWET L-77
[6] = 1000 mg/L (each antibiotic), with 0.06% SILWET L-77
[7] = 1000 mg/L (each antibiotic), without SILWET L-77

| SMILES | number of plants with mild symptoms [1, 4] | number of plants with no symptoms [1, 4] | number of plants with severe necrosis [1, 4] | number of plants with mild symptoms [1, 5] | number of plants with no symptoms [1, 5] | number of plants with severe necrosis [1, 5] | number of plants with mild symptoms [1, 6] | number of plants with no symptoms [1, 6] | number of plants with severe necrosis [1, 6] | number of plants with mild symptoms [1, 7] | number of plants with no symptoms [1, 7] | number of plants with severe necrosis [1, 7] | bleaching and necrosis in treated plant leaves ([2]; 300 mg/L, 500 mg/L and 750 mg/L in 0.03% SILWET L-77, two days) | bleaching and necrosis in treated plant leaves ([2]; 1000 mg/L in 0.03% SILWET L-77, two days) | necrosis relative to similarly treated leaves of corn plants that do not contain NPTII protein [3] |
| --- | --- | --- | --- | --- | --- | --- | --- | --- | --- | --- | --- | --- | --- | --- | --- |
| NC[C@H]1O[C@H](O[C@H]2[C@H](O)[C@@H](O[C@H]3O[C@H](CO)[C@@H](O)[C@H](N)[C@H]3O)[C@H](N)C[C@@H]2N)[C@H](O)[C@@H](O)[C@@H]1O [kanamycin] | 0 | 0 | 5 | 1 | 4 | 0 | 2 | 0 | 3 | 1 | 4 | 0 | – | – | – |
| NC[C@@H]1O[C@H](O[C@H]2[C@@H](O)[C@H](O[C@@H]3[C@@H](O)[C@H](N)C[C@H](N)[C@H]3O[C@H]3O[C@H](CO)[C@@H](O)[C@H](O)[C@H]3N)O[C@@H]2CO)[C@H](N)[C@@H](O)[C@@H]1O [paromomycin] | 0 | 2 | 3 | 0 | 5 | 0 | 0 | 1 | 4 | 0 | 5 | 0 | Slight to moderate necrosis and some bleaching | extreme necrosis and some bleaching | reduced or no necrosis |
